Experimental data as given in publication PMC6660241 (The Journal of organic chemistry, 2019).
Read-outs that look alike come from different tables or passages of the source.

How the values were obtained:
A. ureafaciens sialidase [1] = molecular target: T1, A. ureafaciens sialidase (Paenarthrobacter ureafaciens, UniProt Q5W7Q2); experiment: Sialidase inhibition assay; type: biochemical, Arthrobacter ureafaciens; conditions: read-out: Percentage inhibition, A. ureafaciens
BiNanH2 [2] = molecular target: T2, BiNanH2 (Bifidobacterium longum subsp. infantis, UniProt A0ACD7UU12); experiment: biochemical; type: biochemical, Bifidobacterium longum subsp. infantis ATCC15697
SpNanC [3] = molecular target: T3, SpNanC (Streptococcus pneumoniae, UniProt A0A0H2UQE4); experiment: biochemical; conditions: for inhibition at 100 µM / inhibition at 1000 µM: read-out: Percentage inhibition, SpNanC
PmST1 [4] = molecular target: T4, PmST1 (Pasteurella multocida, UniProt Q15KI8); experiment: biochemical; conditions: for inhibition at 100 µM / inhibition at 1000 µM: read-out: Percentage inhibition, PmST1
[5] = molecular target: C. perfringens sialidase (CpNanI) (Clostridium perfringens, UniProt A0A0H2YQR1); experiment: biochemical
SpNanA [6] = molecular target: T5, SpNanA (Streptococcus pneumoniae, UniProt P62575); experiment: biochemical
SpNanB = SpNanB (Streptococcus pneumoniae serotype 4, UniProt Q54727); experiment: biochemical; conditions: for inhibition at 100 µM / inhibition at 1000 µM: read-out: Percentage inhibition, SpNanB
V. cholerae sialidase [7] = molecular target: T6, V. cholerae sialidase (Vibrio cholerae serotype O1, UniProt P0C6E9); experiment: biochemical; type: biochemical
hNEU2 [8] = molecular target: T7, hNEU2 (Homo sapiens, UniProt Q9Y3R4); experiment: Sialidase inhibition assay; type: biochemical; conditions: read-out: Percentage inhibition, hNEU2
[9] = system: C. perfringens sialidase CpNanI; type: biochemical, Clostridium perfringens; conditions: inhibitor:sialidase 2:1 molar ratio, 23 °C; for sensitivity of CpNanI to the covalent inhibitor in the time course study: Figures 2A, S2A
PmST1 [10] = molecular target: T4, PmST1; conditions: read-out: IC50, PmST1; substrate Neu5Acα2–3GalβpNP; ref [25]; cited from earlier work
A. ureafaciens sialidase [11] = molecular target: T1, A. ureafaciens sialidase; conditions: read-out: IC50, A. ureafaciens; substrate Neu5Acα2–3GalβpNP; ref [47]; cited from earlier work
SpNanC [12] = molecular target: T3, SpNanC; conditions: read-out: IC50, SpNanC; substrate Neu5Acα2–3GalβpNP; ref [25]; cited from earlier work
hNEU2 [13] = molecular target: T7, hNEU2; type: biochemical; conditions: inhibitor:sialidase 2:1 molar ratio; 23 °C; Figures 2E, S2E
BiNanH2 [14] = molecular target: T2, BiNanH2; type: biochemical, Bifidobacterium longum subsp. infantis ATCC15697; conditions: inhibitor:sialidase 2:1 molar ratio, 23 °C
V. cholerae sialidase [15] = molecular target: T6, V. cholerae sialidase; type: biochemical; conditions: inhibitor:sialidase 2:1 molar ratio; 23 °C
SpNanA [16] = molecular target: T5, SpNanA; type: biochemical; conditions: inhibitor:sialidase 2:1 molar ratio, 23 °C
[17] = read-out: Percentage inhibition, BiNanH2
[18] = read-out: Percentage inhibition, C. perfringens
[19] = read-out: Percentage inhibition, SpNanA
[20] = read-out: Percentage inhibition, V. cholerae

T6 sequence (P0C6E9 25-781): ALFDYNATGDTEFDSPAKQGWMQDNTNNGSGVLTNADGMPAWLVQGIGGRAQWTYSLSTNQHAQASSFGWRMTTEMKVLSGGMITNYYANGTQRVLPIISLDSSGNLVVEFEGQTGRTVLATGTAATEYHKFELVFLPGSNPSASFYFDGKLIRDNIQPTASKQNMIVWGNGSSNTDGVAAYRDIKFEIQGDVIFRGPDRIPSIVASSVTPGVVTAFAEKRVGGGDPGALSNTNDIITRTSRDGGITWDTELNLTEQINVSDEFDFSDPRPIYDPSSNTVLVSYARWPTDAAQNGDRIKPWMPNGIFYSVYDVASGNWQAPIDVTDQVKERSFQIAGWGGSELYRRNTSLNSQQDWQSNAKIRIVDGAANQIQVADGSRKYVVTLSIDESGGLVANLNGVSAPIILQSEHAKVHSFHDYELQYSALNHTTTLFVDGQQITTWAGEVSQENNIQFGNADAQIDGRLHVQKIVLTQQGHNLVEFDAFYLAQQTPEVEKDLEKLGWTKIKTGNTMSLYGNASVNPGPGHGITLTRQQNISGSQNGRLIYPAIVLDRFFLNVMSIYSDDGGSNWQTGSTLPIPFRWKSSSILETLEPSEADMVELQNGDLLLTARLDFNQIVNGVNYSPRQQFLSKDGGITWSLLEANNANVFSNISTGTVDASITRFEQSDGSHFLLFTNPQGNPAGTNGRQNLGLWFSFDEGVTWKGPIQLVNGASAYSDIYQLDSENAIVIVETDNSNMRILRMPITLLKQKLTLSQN
Chain of SpNanB (Q54727 30-697): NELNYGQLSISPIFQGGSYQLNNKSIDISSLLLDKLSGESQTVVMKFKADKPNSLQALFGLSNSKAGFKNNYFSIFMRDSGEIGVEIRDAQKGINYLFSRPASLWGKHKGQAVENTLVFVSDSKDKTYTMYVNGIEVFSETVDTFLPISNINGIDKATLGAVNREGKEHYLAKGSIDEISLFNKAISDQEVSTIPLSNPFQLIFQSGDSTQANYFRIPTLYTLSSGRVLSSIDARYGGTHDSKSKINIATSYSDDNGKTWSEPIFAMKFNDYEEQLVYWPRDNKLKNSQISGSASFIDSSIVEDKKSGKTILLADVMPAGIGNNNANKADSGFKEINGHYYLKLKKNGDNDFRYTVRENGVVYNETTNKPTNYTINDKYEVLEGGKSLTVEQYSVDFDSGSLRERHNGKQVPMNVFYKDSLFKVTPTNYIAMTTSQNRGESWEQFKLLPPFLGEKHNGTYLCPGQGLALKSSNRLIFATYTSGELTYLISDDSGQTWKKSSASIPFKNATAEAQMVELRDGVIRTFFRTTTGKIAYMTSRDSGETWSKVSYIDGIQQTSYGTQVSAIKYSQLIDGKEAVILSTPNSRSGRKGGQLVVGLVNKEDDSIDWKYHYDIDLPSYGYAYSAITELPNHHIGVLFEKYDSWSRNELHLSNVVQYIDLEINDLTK
T5 sequence (P62575 54-1035): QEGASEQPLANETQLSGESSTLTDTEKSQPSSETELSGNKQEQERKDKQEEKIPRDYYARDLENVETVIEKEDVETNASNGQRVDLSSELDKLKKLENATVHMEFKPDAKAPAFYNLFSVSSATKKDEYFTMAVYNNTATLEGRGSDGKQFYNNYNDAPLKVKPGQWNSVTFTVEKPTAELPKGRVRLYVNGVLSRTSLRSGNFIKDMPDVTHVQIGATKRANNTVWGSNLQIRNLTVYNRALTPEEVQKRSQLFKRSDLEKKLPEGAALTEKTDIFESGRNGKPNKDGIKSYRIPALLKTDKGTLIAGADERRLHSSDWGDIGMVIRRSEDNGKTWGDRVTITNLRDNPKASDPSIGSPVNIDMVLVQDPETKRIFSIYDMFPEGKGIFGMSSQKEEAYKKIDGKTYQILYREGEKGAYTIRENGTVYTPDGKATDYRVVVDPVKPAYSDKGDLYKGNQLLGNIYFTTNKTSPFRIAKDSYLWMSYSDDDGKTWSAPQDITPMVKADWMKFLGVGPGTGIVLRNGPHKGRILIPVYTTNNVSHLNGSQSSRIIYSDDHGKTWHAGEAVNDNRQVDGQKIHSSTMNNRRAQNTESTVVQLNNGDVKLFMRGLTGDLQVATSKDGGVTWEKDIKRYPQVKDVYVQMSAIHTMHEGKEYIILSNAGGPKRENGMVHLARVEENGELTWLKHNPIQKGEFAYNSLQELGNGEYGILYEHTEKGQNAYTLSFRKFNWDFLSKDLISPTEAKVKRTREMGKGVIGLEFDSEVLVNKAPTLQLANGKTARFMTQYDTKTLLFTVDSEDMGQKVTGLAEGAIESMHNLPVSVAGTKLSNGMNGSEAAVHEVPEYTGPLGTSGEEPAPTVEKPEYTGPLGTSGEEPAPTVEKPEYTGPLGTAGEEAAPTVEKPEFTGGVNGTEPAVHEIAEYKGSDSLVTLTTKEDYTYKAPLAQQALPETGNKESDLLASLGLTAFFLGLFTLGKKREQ
Chain of C. perfringens sialidase (CpNanI) (A0A0H2YQR1 27-694 limits assumed): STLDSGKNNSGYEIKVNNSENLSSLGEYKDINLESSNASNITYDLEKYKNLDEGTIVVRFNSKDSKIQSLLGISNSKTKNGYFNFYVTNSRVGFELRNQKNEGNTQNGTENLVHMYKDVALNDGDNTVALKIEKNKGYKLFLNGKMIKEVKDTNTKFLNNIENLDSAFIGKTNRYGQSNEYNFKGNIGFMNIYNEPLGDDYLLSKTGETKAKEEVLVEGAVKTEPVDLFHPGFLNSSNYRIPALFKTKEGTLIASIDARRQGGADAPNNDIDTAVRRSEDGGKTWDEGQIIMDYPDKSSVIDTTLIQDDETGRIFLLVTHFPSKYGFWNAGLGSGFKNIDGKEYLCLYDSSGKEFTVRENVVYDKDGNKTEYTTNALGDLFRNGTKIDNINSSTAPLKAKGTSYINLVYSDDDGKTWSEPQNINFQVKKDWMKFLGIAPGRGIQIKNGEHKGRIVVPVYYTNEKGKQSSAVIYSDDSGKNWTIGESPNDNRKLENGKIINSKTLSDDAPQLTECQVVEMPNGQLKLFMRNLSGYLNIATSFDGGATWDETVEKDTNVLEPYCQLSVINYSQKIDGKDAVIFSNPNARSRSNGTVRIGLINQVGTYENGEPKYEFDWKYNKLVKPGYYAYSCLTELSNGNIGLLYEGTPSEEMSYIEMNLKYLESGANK
T7 sequence (Q9Y3R4 whole entry): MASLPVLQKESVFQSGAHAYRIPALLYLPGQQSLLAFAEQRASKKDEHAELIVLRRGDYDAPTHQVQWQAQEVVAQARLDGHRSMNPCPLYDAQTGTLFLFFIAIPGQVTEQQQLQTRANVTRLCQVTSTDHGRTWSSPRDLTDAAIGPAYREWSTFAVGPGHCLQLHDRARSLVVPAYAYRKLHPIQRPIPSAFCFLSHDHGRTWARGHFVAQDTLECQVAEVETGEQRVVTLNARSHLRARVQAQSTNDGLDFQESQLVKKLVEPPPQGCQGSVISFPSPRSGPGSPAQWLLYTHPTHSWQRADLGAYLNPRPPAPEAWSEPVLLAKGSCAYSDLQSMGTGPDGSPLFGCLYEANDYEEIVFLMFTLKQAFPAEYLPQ

Compound	inhibition at 100 µM (A. ureafaciens sialidase [1])	inhibition at 100 µM (BiNanH2 [2]; [17])	inhibition at 100 µM (SpNanC [3])	inhibition at 1000 µM (SpNanC [3])	IC50 (PmST1 [4])	inhibition at 100 µM (PmST1 [4])	inhibition at 1000 µM (PmST1 [4])	IC50 [5]	inhibition at 100 µM [5, 18]	IC50 (SpNanA [6])	inhibition at 100 µM (SpNanA [6]; [19])	IC50 (SpNanB)	inhibition at 100 µM (SpNanB)	inhibition at 1000 µM (SpNanB)	IC50 (V. cholerae sialidase [7])	inhibition at 100 µM (V. cholerae sialidase [7]; [20])	inhibition at 100 µM (hNEU2 [8])	further results
CC(=O)N[C@@H]1[C@@H](O)[C@@H](F)[C@](F)(C(=O)O)O[C@H]1[C@H](O)[C@H](O)CO [Compound 5, 5-Acetamido-2,3,5-trideoxy-3-fluoro-D-erythro-α-L-manno-non-2-ulopyranosylonic fluoride]	99.9 ± 0.2%	98.9 ± 0.5%	< 1%	55.2 ± 0.4%	> 1000 µM	< 1%	3 ± 0.6%	0.18 µM	99.9 ± 0.1%	0.13 µM	99.9 ± 0.1%	> 1000 µM	12 ± 0.2%	19 ± 0.2%	0.33 µM	96.8 ± 1.4%	69.7 ± 0.4%	
CC(=O)N[C@@H]1[C@@H](O)[C@H](F)[C@](F)(C(=O)O)O[C@H]1[C@H](O)[C@H](O)CO [Compound 1, 5-Acetamido-2,3,5-trideoxy-3-fluoro-D-erythro-α-L-gluco-non-2-ulopyranosylonic fluoride]	99.2 ± 0.3%	95.4 ± 0.9%	< 1%	25.1 ± 6.1%	> 1000 µM	< 1%	4.3 ± 0.1%		80.6 ± 0.7%		99.7 ± 0.3%	> 1000 µM	11.8 ± 1%	30.2 ± 2.2%	2 ± 0.1 µM	97.7 ± 0.3%	75.4 ± 0.6%	IC50 (SpNanC [3]; read-out: IC50, SpNanC): > 1000 µM
[N-]=[N+]=N[C@@H]1[C@@H](O)[C@H](F)[C@](F)(C(=O)O)O[C@H]1[C@H](O)[C@H](O)CO [Compound 3, 5-Azido-2,3,5-trideoxy-3-fluoro-D-erythro-α-L-gluco-non-2-ulopyranosylonic fluoride]	75.2 ± 0.2%	40.8 ± 3.4%	< 1%	6.5 ± 0.8%	> 1000 µM	< 1%	7.8 ± 0.3%	> 1000 µM	29.8 ± 1.2%	> 1000 µM	< 1%	> 1000 µM	35.1 ± 0.8%	38 ± 0.9%		25 ± 1%	37.5 ± 1.2%	inhibition at 1000 µM (BiNanH2 [2]; [17]): 85.6 ± 0.5%; inhibition at 1000 µM [5, 18]: 30 ± 0.8%; inhibition at 1000 µM (SpNanA [6]; [19]): 29.6 ± 0.9%; inhibition at 1000 µM (V. cholerae sialidase [7]; [20]): 76.6 ± 4.6%; inhibition at 1000 µM (hNEU2 [8]): 80.7 ± 1.2%
O=C(CO)N[C@@H]1[C@@H](O)[C@H](F)[C@](F)(C(=O)O)O[C@H]1[C@H](O)[C@H](O)CO [Compound 4, 5-glycolamido-2,3,5-trideoxy-3-fluoro-D-erythro-α-L-gluco-non-2-ulopyranosylonic fluoride]	96.1 ± 0.6%	87.3 ± 0.8%	< 1%	5.5 ± 0.2%	> 1000 µM	< 1%	22.4 ± 0.1%		71.6 ± 1.2%		78.4 ± 0.5%	> 1000 µM	25.3 ± 1.7%	26 ± 4.9%	1.6 ± 0.1 µM	97.8 ± 0.1%	80.4 ± 1.3%	
CC(=O)N[C@@H]1[C@@H](O)[C@H](F)[C@](F)(C(=O)O)O[C@H]1[C@H](O)[C@H](O)CN=[N+]=[N-] [Compound 2, 5-Acetamido-9-azido-2,3,5,9-tetradeoxy-3-fluoro-D-erythro-α-L-gluco-non-2-ulopyranosylonic fluoride]	99.9 ± 0.2%	98.9%	< 1%	53.9 ± 0.1%	> 1000 µM	< 1%	9.3 ± 2.3%	0.73 µM	99.9 ± 0.1%	0.21 µM	85.8 ± 0.7%		26.8 ± 0.2%	51.9 ± 2.2%	0.73 µM	99.2 ± 0.5%	82.3 ± 2.8%	sensitivity of CpNanI to the covalent inhibitor in the time course study [9]: also sensitive
CC(=O)N[C@H]1[C@H]([C@H](O)[C@H](O)CO)OC(C(=O)O)=C[C@@H]1O [Neu5Ac2en, 2-deoxy-2,3-didehydro-N-acetylneuraminic acid]																		IC50 (PmST1 [10]): > 1000 µM; IC50 (A. ureafaciens sialidase [11]): 8.1 ± 0.3 µM; IC50 (SpNanC [12]): > 1000 µM
CC(=O)N[C@@H]1[C@@H](O)[C@@H](F)[C@](F)(C(=O)O)O[C@H]1[C@H](O)[C@H](O)CN=[N+]=[N-] [Compound 6, 5-Acetamido-9-azido-2,3,5,9-tetradeoxy-3-fluoro-D-erythro-α-L-manno-non-2-ulopyranosylonic fluoride]	99.9 ± 0.1%	98.8 ± 2.2%	< 1%	83.7 ± 3.5%	> 1000 µM	< 1%	6 ± 0.4%	0.024 µM	99.9 ± 0.1%	0.033 µM	99.9 ± 0.1%	> 1000 µM	16.7 ± 1.6%	43.8 ± 1.4%	0.18 µM	99.9 ± 0.6%	1.5 ± 0.3%	IC50 for BiNanH2 better than that for hNEU2 (BiNanH2 [2]; selectivity BiNanH2 versus hNEU2): at least 500 fold; sensitivity of hNEU2 to the covalent inhibitor in the time course study (hNEU2 [13]): except for hNEU2; time for de-activation of BiNanH2 (BiNanH2 [14]): < 10 min; sensitivity of BiNanH2 to the covalent inhibitor in the time course study (BiNanH2 [14]; Figures 2D, S2D): sensitive; time for de-activation of V. cholerae sialidase (V. cholerae sialidase [15]): < 10 min; time for de-activation of CpNanI [9]: < 10 min; sensitivity of CpNanI to the covalent inhibitor in the time course study [9]: sensitive; IC50 for V. cholerae sialidase better than that for hNEU2 (V. cholerae sialidase [7]; selectivity V. cholerae sialidase versus hNEU2): at least 500 fold; inhibition at 1000 µM (hNEU2 [8]): 53.4 ± 1.3%; time for de-activation of SpNanA (SpNanA [16]): < 10 min; sensitivity of SpNanA to the covalent inhibitor in the time course study (SpNanA [16]; Figures 2C, S2C): sensitive
